50 compounds from patent US20110144345A1, “SULFOXYIMINO-SUBSTITUTED BENZOYL DERIVATIVE AND HERBICIDE” (NIPPON SODA CO., LTD., priority 2008, published 2011) can be followed below.

As a reminder, the melting point is the temperature, or range, at which the solid turns liquid. The compound `COC(=O)c1ccc(C(=O)c2cnn(C)c2O)c(Br)c1N=S1(=O)CCOCC1` [Example 69] yielded a melting point of 158 to 164 °C. Under `Cn1ncc(C(=O)c2ccc(OC3CCCC3)c(N=S3(=O)CCCCC3)c2Cl)c1O` [Example 49] stands 145 to 148 °C; under `COc1ccc(C(=O)c2cnn(C)c2O)c(Cl)c1N=S(C)(=O)c1ccccc1` (centres unmarked) [Example 249], 88 to 91 °C; under `CCOc1c(C(=O)c2cnn(C)c2O)ccc(OC)c1N=S1(=O)CCCCC1` [Example 156], 111 to 113 °C. Under `N#Cc1ccc(C(=O)C2=C(O)CCCC2=O)c(Cl)c1N=S1(=O)CCCCC1` [Example 186] stands 124 to 126 °C; under `Cn1ncc(C(=O)c2ccc(O)c(N=S3(=O)CCCCC3)c2Cl)c1O` [Example 233], 165 to 167 °C; under `CCn1ncc(C(=O)c2ccc(OC)c(N=S3(=O)CCCCC3)c2Cl)c1O` [Example 4], 137 to 139 °C. Under `COc1ccc(C(=O)c2cnn(C)c2O)c(Br)c1N=S1(=O)CCCCC1` [Example 223] stands 144 to 146 °C; under `Cn1ncc(C(=O)c2ccc(OCC(F)(F)F)c(N=S3(=O)CCCCC3)c2Cl)c1O` [Example 144], 97 to 99 °C. The compound `CSc1c(C(=O)c2cnn(C)c2O)ccc(C(F)(F)F)c1N=S1(=O)CCCCC1` [Example 169] showed a melting point of 155 to 157 °C.

Compound `CCOC(=O)c1ccc(C(=O)c2cnn(C)c2O)c(Cl)c1N=S1(=O)CCCCC1` [Example 47] returned a melting point of 88 to 91 °C.

As for `Cn1ncc(C(=O)c2ccc(-c3ccco3)c(N=S3(=O)CCCCC3)c2Cl)c1O` [Example 228], the melting point was in the range of 97 to 103 °C.

Compound `Cn1ncc(C(=O)c2ccc(OCc3ccccc3)c(N=S3(=O)CCCCC3)c2Cl)c1O` [Example 66] came in with a melting point of 95 to 97 °C. Next, `CCn1ncc(C(=O)c2ccc(C(=O)OC)c(N=S3(=O)CCOCC3)c2Br)c1O` [Example 74]: 210 to 215 °C.

For `CSCOc1ccc(C(=O)c2cnn(C)c2O)c(Cl)c1N=S1(=O)CCCCC1` [Example 238], the melting point fell in the range of 112 to 114 °C. Next, `CCOc1ccc(C(=O)c2cnn(C)c2O)c(Cl)c1N=S1(=O)CCCCC1` [Example 12]: 88 to 90 °C. Compound `C#CCOc1ccc(C(=O)c2cnn(C)c2O)c(Cl)c1N=S1(=O)CCCCC1` [Example 205] yielded a melting point of 169 to 171 °C. Next, `CCS(=O)(CC)=Nc1c(OC)ccc(C(=O)c2cnn(C)c2O)c1OC` [Example 140]: 96 to 98 °C.

In turn, `CCS(=O)(CC)=Nc1c(C)ccc(C(=O)c2cnn(C)c2O)c1C` [Example 167] showed a melting point of 126 to 128 °C. As to `CC(=O)OCc1ccc(C(=O)c2cnn(C)c2O)c(Cl)c1N=S1(=O)CCCCC1` [Example 83], the melting point is 64 to 68 °C.

`CON=Cc1ccc(C(=O)c2cnn(C)c2O)c(Cl)c1N=S1(=O)CCCCC1` [Example 55] displayed a melting point of 98 to 105 °C.

`CSc1ccc(C(=O)c2cnn(C)c2O)c(Cl)c1N=S1(=O)CCCCC1` [Example 42] yielded a melting point of 157 to 159 °C. `CC(=O)Oc1ccc(C(=O)c2cnn(C)c2O)c(Cl)c1N=S1(=O)CCCCC1` [Example 189]: the melting point was in the range of 135 to 139 °C. Next, `Cn1ncc(C(=O)c2cccc(N=S3(=O)CCCCC3)c2)c1O` [Example 35]: 112 to 113 °C; `Cc1ccc(C(=O)c2cnn(C)c2O)c(C)c1N=S(C)(C)=O` [Example 168]: 133 to 135 °C. Under `COC(=O)c1ccc(C(=O)c2cnn(C)c2O)cc1N=S1(=O)CCCCC1` [Example 96] stands 133 to 137 °C; under `COCc1ccc(C(=O)c2cnn(C)c2O)c(Cl)c1N=S1(=O)CCCCC1` [Example 52], 78 to 82 °C; under `COc1ccc(C(=O)c2c(C3CC3)nn(C)c2O)c(Cl)c1N=S1(=O)CCCCC1` [Example 56], 145 to 147 °C. Take `CCn1ncc(C(=O)c2ccc(OC)c(N=S3(=O)CCCCC3)c2[N+](=O)[O-])c1O` [Example 77]: the melting point fell in the range of 190 to 192 °C. `CCOc1c(C(=O)c2cnn(CC)c2O)ccc(OC)c1N=S1(=O)CCCCC1` [Example 163] returned a melting point of 124 to 126 °C. Under `CC(C)Oc1ccc(C(=O)c2cnn(C)c2O)c(Cl)c1N=S1(=O)CCCCC1` [Example 16] stands 139 to 141 °C. Next, `COc1ccc(C(=O)c2cnn(C)c2OCC(F)(F)F)c(Cl)c1N=S1(=O)CCCCC1` [Example 235]: 131 to 132 °C; `COC(=O)c1ccc(C(=O)c2cnn(C)c2O)c(Cl)c1N=S1(=O)CCCCC1` [Example 21]: 204 to 206 °C; `COCOc1ccc(C(=O)c2cnn(C)c2O)c(Cl)c1N=S1(=O)CCCCC1` [Example 221]: 93 to 95 °C. Compound `COc1ccc(C(=O)c2cnn(C)c2OC(=O)C2CC2)c(Cl)c1N=S1(=O)CCCCC1` [Example 246] came in with a melting point of 129 to 131 °C. The compound `COc1ccc(C(=O)C(C#N)C(=O)C2CC2)c(Cl)c1N=S1(=O)CCCCC1` (centres unmarked) [Example 5] returned a melting point of 154 to 156 °C.

On to `Cn1ncc(C(=O)c2ccc(C#N)c(N=S3(=O)CCCCC3)c2Cl)c1O` [Example 44], for which the melting point fell in the range of 192 to 196 °C.

As to `COC(=O)/C=C/c1ccc(C(=O)c2cnn(C)c2O)c(Cl)c1N=S1(=O)CCCCC1` [Example 91], the melting point lay in the range of 145 to 150 °C. Next, `COC(=O)c1ccc(C(=O)C2=C(O)CCCC2=O)c(Cl)c1N=S(C)(C)=O` [Example 160]: 135 to 137 °C; `Cn1ncc(C(=O)c2ccc(Oc3ccccc3)c(N=S3(=O)CCCCC3)c2Cl)c1O` [Example 180]: 134 to 137 °C; `COc1ccc(C(=O)C2=C(O)CCCC2=O)c(Cl)c1N=S(C)(=O)c1cccs1` (centres unmarked) [Example 194]: 159 to 162 °C. Regarding `Cn1ncc(C(=O)c2ccc(OCCC3OCCO3)c(N=S3(=O)CCCCC3)c2Cl)c1O` [Example 199], the melting point lay in the range of 99 to 101 °C. Under `Cn1ncc(C(=O)c2cccc(N=S3(=O)CCCCC3)c2F)c1O` [Example 170] stands 162 to 164 °C; under `Cn1ncc(C(=O)c2ccc(OCC3CC3)c(N=S3(=O)CCCCC3)c2Cl)c1O` [Example 215], 188 to 190 °C. In turn, `O=C1CCCC(O)=C1C(=O)c1ccc(OCc2ccccc2)c(N=S2(=O)CCCCC2)c1Cl` [Example 65] displayed a melting point of 152 to 155 °C. Next, `O=C1CCCC(O)=C1C(=O)c1ccc(-c2ccccc2)c(N=S2(=O)CCCCC2)c1Cl` [Example 23]: 166 to 168 °C; `Cn1ncc(C(=O)c2ccc(OCC(F)(F)C(F)(F)F)c(N=S3(=O)CCCCC3)c2Cl)c1O` [Example 242]: 106 to 108 °C. Under `CCS(=O)(CC)=Nc1c(C(=O)OC)ccc(C(=O)c2cnn(C)c2O)c1Cl` [Example 26] stands 69 to 73 °C; under `COc1ccc(C(=O)c2cnn(C)c2O)c(OC)c1N=S1(=O)CCCCC1` [Example 99], 116 to 118 °C. Under `CSc1ccc(C(=O)C2=C(O)CCCC2=O)c(Cl)c1N=S1(=O)CCCCC1` [Example 41] stands 178 to 180 °C.
